In patent publication US10966978B2, “Dose and regimen for HDM2-p53 interaction inhibitors” (Novartis AG, priority 2016, dated 2021):
Read-outs that look alike come from different tables or passages of the source.

Test system: patients with advanced TP53 wild-type (WT) leukemias

## COc1ncc(-c2nc3c(n2C(C)C)[C@H](c2ccc(Cl)cc2)N(c2cc(Cl)cn(C)c2=O)C3=O)c(OC)n1 [HDM201, (S)-5-(5-Chloro-1-methyl-2-oxo-1,2-dihydro-pyridin-3-yl)-6-(4-chloro-phenyl)-2-(2,4-dimethoxy-pyrimidin-5-yl)-1-isopropyl-5,6-dihydro-1H-pyrrolo[3,4-d]imidazol-4-one]
Regimen 1B N = 6, All Grades
  AE: Stomatitis: 0 n (%)
  AE: Subarachnoid Haemorrhage: 0 n (%)
  AE: Thrombocytopenia/Platelet Count Decreased: 3 (50.0) n (%)
  AE: Total: 5 (83.3) n (%)
  AE: Tumour Lysis Syndrome: 0 n (%)
  AE: Vomiting: 0 n (%)
  AE: Weight Decreased: 0 n (%)
  AE: White Blood Cell Count Decreased: 0 n (%)
Regimen 1B N = 6, Grade 3/4
  AE: Abdominal Discomfort: 0 n (%)
  AE: Abdominal Pain: 0 n (%)
  AE: Abdominal Pain Upper: 0 n (%)
  AE: Acute Kidney Injury: 1 (16.7) n (%)
  AE: Amylase Increased: 0 n (%)
  AE: Anaemia: 2 (33.3) n (%)
  AE: Arthralgia: 0 n (%)
  AE: Asthenia: 0 n (%)
  AE: Atrial Fibrillation: 0 n (%)
  AE: Atypical Pneumonia: 0 n (%)
  AE: Balanitis Candida: 0 n (%)
  AE: Blood Alkaline Phosphatase Increased: 0 n (%)
  AE: Blood Bilirubin Increased: 0 n (%)
  AE: Blood Creatinine Increased: 0 n (%)
  AE: Blood Phosphorus Increased: 0 n (%)
  AE: Blood Uric Acid Increased: 0 n (%)
  AE: Bone Marrow Failure: 0 n (%)
  AE: C-Reactive Protein Increased: 0 n (%)
  AE: Cardiac Failure: 0 n (%)
  AE: Cellulitis: 1 (16.7) n (%)
  AE: Chronic Graft Versus Host Disease: 0 n (%)
  AE: Conjunctival Haemorrhage: 0 n (%)
  AE: Constipation: 0 n (%)
  AE: Cough: 0 n (%)
  AE: Cystitis Viral: 0 n (%)
  AE: Cytomegalovirus Infection: 0 n (%)
  AE: Decreased Appetite: 0 n (%)
  AE: Diarrhoea: 0 n (%)
  AE: Dyspepsia: 0 n (%)
  AE: Dyspnoea: 0 n (%)
  AE: Epistaxis: 0 n (%)
  AE: Fatigue: 0 n (%)
  AE: Febrile Neutropenia: 2 (33.3) n (%)
  AE: Gamma-Glutamyltransferase Increased: 0 n (%)
  AE: General Physical Health Deterioration: 0 n (%)
  AE: Gingival Bleeding: 0 n (%)
  AE: Graft Versus Host Disease: 0 n (%)
  AE: Haemoglobin Decreased: 0 n (%)
  AE: Headache: 0 n (%)
  AE: Hyperbilirubinaemia: 0 n (%)
  AE: Hyperglycaemia: 0 n (%)
  AE: Hyperkalaemia: 1 (16.7) n (%)
  AE: Hyperphosphataemia: 0 n (%)
  AE: Hyperuricaemia: 0 n (%)
  AE: Hypoalbuminaemia: 0 n (%)
  AE: Hypocalcaemia: 0 n (%)
  AE: Hypokalaemia: 0 n (%)
  AE: Hypomagnesaemia: 0 n (%)
  AE: Hyponatraemia: 0 n (%)
  AE: Hypophosphataemia: 0 n (%)
  AE: Hypotension: 0 n (%)
  AE: Infection: 0 n (%)
  AE: Infective Glossitis: 0 n (%)
  AE: Iron Overload: 0 n (%)
  AE: Leukopenia: 0 n (%)
  AE: Lip Oedema: 0 n (%)
  AE: Lipase Increased: 0 n (%)
  AE: Macular Oedema: 1 (16.7) n (%)
  AE: Malaise: 0 n (%)
  AE: Mouth Haemorrhage: 0 n (%)
  AE: Nausea: 0 n (%)
  AE: Neutropenia/Neutrophil Count Decreased: 1 (16.7) n (%)
  AE: Oedema: 0 n (%)
  AE: Oedema Peripheral: 0 n (%)
  AE: Oral Disorder: 0 n (%)
  AE: Pain In Extremity: 0 n (%)
  AE: Pancytopenia: 1 (16.7) n (%)
  AE: Pneumonia: 0 n (%)
  AE: Pollakiuria: 0 n (%)
  AE: Pyrexia: 0 n (%)
  AE: Rash: 0 n (%)
  AE: Rash Erythematous: 0 n (%)
  AE: Rash Papular: 0 n (%)
  AE: Rectal Haemorrhage: 0 n (%)
  AE: Renal Failure: 0 n (%)
  AE: Skin Exfoliation: 0 n (%)
  AE: Stomatitis: 0 n (%)
  AE: Subarachnoid Haemorrhage: 0 n (%)
  AE: Thrombocytopenia/Platelet Count Decreased: 3 (50.0) n (%)
  AE: Total: 5 (83.3) n (%)
  AE: Tumour Lysis Syndrome: 0 n (%)
  AE: Vomiting: 0 n (%)
  AE: Weight Decreased: 0 n (%)
  AE: White Blood Cell Count Decreased: 0 n (%)
Regimen 2A N = 7, All Grades
  AE: Abdominal Discomfort: 0 n (%)
  AE: Abdominal Pain: 0 n (%)
  AE: Abdominal Pain Upper: 0 n (%)
  AE: Acute Kidney Injury: 1 (14.3) n (%)
  AE: Amylase Increased: 0 n (%)
  AE: Anaemia: 3 (42.9) n (%)
  AE: Arthralgia: 0 n (%)
  AE: Asthenia: 0 n (%)
  AE: Atrial Fibrillation: 0 n (%)
  AE: Atypical Pneumonia: 0 n (%)
  AE: Balanitis Candida: 0 n (%)
  AE: Blood Alkaline Phosphatase Increased: 0 n (%)
  AE: Blood Bilirubin Increased: 0 n (%)
